Experimental data taken from ChEMBL document CHEMBL3393000, “Synthesis and anticancer activity of some 8-substituted-7-methoxy-2H-chromen-2-one derivatives toward hepatocellular carcinoma HepG2 cells” (Eur J Med Chem, 2015).

Assays:
[1] = target: Telomerase reverse transcriptase (Homo sapiens) (UniProt O14746); experiment: Inhibition of telomerase in human HepG2 cells at 1 uM after 2 days by TRAP-ELISA method; assay type: cell-based
[2] = target: Telomerase reverse transcriptase (Homo sapiens) (UniProt O14746); experiment: Inhibition of telomerase in human HepG2 cells at 1 to 4 uM after 1 to 3 days by TRAP-ELISA method; assay type: cell-based
[3] = target: Telomerase reverse transcriptase (Homo sapiens) (UniProt O14746); experiment: Inhibition of telomerase in human HepG2 cells at 2 uM after 3 days by TRAP-ELISA method; assay type: cell-based
[4] = target: Telomerase reverse transcriptase (Homo sapiens) (UniProt O14746); experiment: Inhibition of telomerase in human HepG2 cells at 2 uM after 2 days by TRAP-ELISA method; assay type: cell-based
[5] = target: Telomerase reverse transcriptase (Homo sapiens) (UniProt O14746); experiment: Inhibition of telomerase in human HepG2 cells at 4 uM after 2 days by TRAP-ELISA method; assay type: cell-based
[6] = target: Telomerase reverse transcriptase (Homo sapiens) (UniProt O14746); experiment: Inhibition of telomerase in human HepG2 cells at 4 uM after 3 days by TRAP-ELISA method; assay type: cell-based
[7] = target: Telomerase reverse transcriptase (Homo sapiens) (UniProt O14746); experiment: Inhibition of telomerase in human HepG2 cells at 1 uM after 3 days by TRAP-ELISA method; assay type: cell-based
[8] = target: Telomerase reverse transcriptase (Homo sapiens) (UniProt O14746); experiment: Inhibition of telomerase in human HepG2 cells at 4 uM after 1 day by TRAP-ELISA method; assay type: cell-based
[9] = target: Telomerase reverse transcriptase (Homo sapiens) (UniProt O14746); experiment: Inhibition of telomerase in human HepG2 cells at 1 uM after 1 day by TRAP-ELISA method; assay type: cell-based
[10] = target: Telomerase reverse transcriptase (Homo sapiens) (UniProt O14746); experiment: Inhibition of telomerase in human HepG2 cells at 2 uM after 1 day by TRAP-ELISA method; assay type: cell-based
HepG2 [11] = experiment: Cytotoxicity against human HepG2 cells assessed as reduction in cell viability after 72 hrs by MTT assay; assay type: functional, cell-based; conditions: HepG2, 72 h
HepG2 [12] = experiment: Induction of apoptosis in human HepG2 cells at 0.01 umol/ml after 24 hrs by annexin V-FITC/propidium iodide staining based flow cytometry (reference value: 0.54%); assay type: functional
HepG2 [13] = experiment: Induction of apoptosis in human HepG2 cells at 0.01 to 0.08 umol/ml after 24 hrs by annexin V-FITC/propidium iodide staining based flow cytometry; assay type: functional, cell-based
HepG2 [14] = experiment: Induction of apoptosis in human HepG2 cells at 0.02 umol/ml after 24 hrs by annexin V-FITC/propidium iodide staining based flow cytometry (reference value: 0.54%); assay type: functional
HepG2 [15] = experiment: Induction of apoptosis in human HepG2 cells at 0.08 umol/ml after 24 hrs by annexin V-FITC/propidium iodide staining based flow cytometry (reference value: 0.54%); assay type: functional
HepG2 [16] = experiment: Induction of apoptosis in human HepG2 cells at 0.04 umol/ml after 24 hrs by annexin V-FITC/propidium iodide staining based flow cytometry (reference value: 0.54%); assay type: functional

Chain of Telomerase reverse transcriptase (Homo sapiens) (O14746 whole entry): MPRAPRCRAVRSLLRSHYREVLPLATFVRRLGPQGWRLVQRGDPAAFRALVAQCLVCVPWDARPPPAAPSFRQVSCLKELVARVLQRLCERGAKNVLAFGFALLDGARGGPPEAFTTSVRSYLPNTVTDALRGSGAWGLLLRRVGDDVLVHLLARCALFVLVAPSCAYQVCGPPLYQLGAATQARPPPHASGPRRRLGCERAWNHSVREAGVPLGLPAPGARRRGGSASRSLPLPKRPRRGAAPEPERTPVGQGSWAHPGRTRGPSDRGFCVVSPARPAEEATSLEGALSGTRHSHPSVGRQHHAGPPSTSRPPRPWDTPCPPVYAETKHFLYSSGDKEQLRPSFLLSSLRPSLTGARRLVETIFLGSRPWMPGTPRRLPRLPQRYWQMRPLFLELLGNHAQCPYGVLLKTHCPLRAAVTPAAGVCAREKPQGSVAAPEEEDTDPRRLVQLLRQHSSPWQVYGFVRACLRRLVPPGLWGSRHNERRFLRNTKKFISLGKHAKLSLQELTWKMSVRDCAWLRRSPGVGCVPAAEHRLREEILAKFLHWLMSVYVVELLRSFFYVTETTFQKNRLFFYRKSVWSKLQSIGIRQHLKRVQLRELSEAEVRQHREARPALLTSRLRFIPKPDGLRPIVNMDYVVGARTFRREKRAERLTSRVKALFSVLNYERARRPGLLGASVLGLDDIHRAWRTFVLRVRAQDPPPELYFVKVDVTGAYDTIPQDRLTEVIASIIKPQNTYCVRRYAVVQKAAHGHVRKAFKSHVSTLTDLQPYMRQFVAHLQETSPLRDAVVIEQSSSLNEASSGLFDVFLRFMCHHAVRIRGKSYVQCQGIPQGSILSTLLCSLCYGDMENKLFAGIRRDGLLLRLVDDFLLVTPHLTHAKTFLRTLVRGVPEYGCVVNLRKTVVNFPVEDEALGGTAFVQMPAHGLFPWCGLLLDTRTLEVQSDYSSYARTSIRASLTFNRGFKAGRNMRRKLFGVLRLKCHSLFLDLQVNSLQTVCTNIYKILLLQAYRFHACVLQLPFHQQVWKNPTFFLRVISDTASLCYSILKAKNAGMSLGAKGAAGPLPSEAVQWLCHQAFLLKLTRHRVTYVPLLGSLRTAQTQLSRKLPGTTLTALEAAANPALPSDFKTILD

CN[C@@H]1C[C@H]2O[C@@](C)([C@@H]1OC)n1c3ccccc3c3c4c(c5c6ccccc6n2c5c31)C(=O)NC4
inhibition [1]: 11.3%
inhibition [2]: Dose-dependent effect
inhibition [3]: 28.7%
inhibition [4]: 18.9%
inhibition [5]: 40.1%
inhibition [6]: 56.5%
inhibition [7]: 15.4%
inhibition [8]: 30.1%
inhibition [9]: 10.7%
inhibition [10]: 12.7%

COc1ccc2ccc(=O)oc2c1CC=C(C)C [OSTHOLE]
IC50 (HepG2 [11]): 161000 nM

COc1ccc2ccc(=O)oc2c1C1=NN(C(C)=O)C(c2cccs2)C1 (configuration not stated)
IC50 (HepG2 [11]): 75 nM

COc1ccc2ccc(=O)oc2c1C(/C=C/c1ccc(C)cc1)=N/NC(N)=O
IC50 (HepG2 [11]): 93 nM

COc1ccc2ccc(=O)oc2c1C1=NN(C(C)=O)C(c2ccc(C(F)(F)F)cc2)C1 (configuration not stated)
IC50 (HepG2 [11]): 80 nM

COc1ccc2ccc(=O)oc2c1C1=NN(c2ccccc2)C(c2ccc(C(F)(F)F)cc2)C1 (configuration not stated)
IC50 (HepG2 [11]): 38 nM

COc1ccc2ccc(=O)oc2c1C1=NNC(c2cccs2)C1 (configuration not stated)
inhibition [1]: 21.5%
inhibition [2]: Dose-dependent effect
inhibition [3]: 44.6%
inhibition [4]: 33.1%
inhibition [5]: 62.6%
inhibition [6]: 75.5%
inhibition [7]: 28.9%
inhibition [8]: 31%
inhibition [9]: 18.6%
IC50 (HepG2 [11]): 11 nM
inhibition [10]: 22.3%

COc1ccc2ccc(=O)oc2c1C1=NNC(c2ccc(SC)cc2)C1 (configuration not stated)
inhibition [1]: 22.4%
inhibition [2]: Dose-dependent effect
Activity (HepG2 [12]): 25.45%
inhibition [3]: 46.4%
Activity (HepG2 [13]): Dose-dependent effect
inhibition [4]: 34.5%
Activity (HepG2 [14]): 35%
inhibition [5]: 65.2%
inhibition [6]: 78.6%
inhibition [7]: 30.1%
inhibition [8]: 32.3%
inhibition [9]: 19.4%
Activity (HepG2 [15]): 46.85%
IC50 (HepG2 [11]): 10 nM
Activity (HepG2 [16]): 40.96%
inhibition [10]: 23.2%

COc1ccc2ccc(=O)oc2c1C1=NNC(c2ccc(C(F)(F)F)cc2)C1 (configuration not stated)
inhibition [1]: 20.2%
inhibition [2]: Dose-dependent effect
inhibition [3]: 42%
inhibition [4]: 31.2%
inhibition [5]: 59%
inhibition [6]: 71.1%
inhibition [7]: 27.2%
inhibition [8]: 29.2%
inhibition [9]: 17.5%
IC50 (HepG2 [11]): 13 nM
inhibition [10]: 21%

COc1ccc2ccc(=O)oc2c1C1=NN(C(N)=O)C(c2ccc(C)cc2)C1 (configuration not stated)
IC50 (HepG2 [11]): 46 nM

COc1ccc2ccc(=O)oc2c1C1=NN(C(N)=O)C(c2ccc(C(F)(F)F)cc2)C1 (configuration not stated)
IC50 (HepG2 [11]): 96 nM

COc1ccc2ccc(=O)oc2c1C1=NN(C(C)=O)C(c2ccc(SC)cc2)C1 (configuration not stated)
IC50 (HepG2 [11]): 42 nM

COc1ccc2ccc(=O)oc2c1C(/C=C/c1ccccc1)=N/NC(N)=O
IC50 (HepG2 [11]): 82 nM

COc1ccc2ccc(=O)oc2c1C1=NNC(c2ccccc2)C1 (configuration not stated)
IC50 (HepG2 [11]): 48 nM

COc1ccc2ccc(=O)oc2c1C(/C=C/c1cccs1)=N/NC(N)=O
IC50 (HepG2 [11]): 75 nM

COc1ccc2ccc(=O)oc2c1C1=NN(c2ccccc2)C(c2cccs2)C1 (configuration not stated)
inhibition [1]: 19.4%
inhibition [2]: Dose-dependent effect
inhibition [3]: 40.3%
inhibition [4]: 30%
inhibition [5]: 56.6%
inhibition [6]: 68.3%
inhibition [7]: 26.1%
inhibition [8]: 28%
inhibition [9]: 16.8%
IC50 (HepG2 [11]): 15 nM
inhibition [10]: 20.1%

COc1ccc2ccc(=O)oc2c1C1=NN(C(N)=O)C(c2ccc(SC)cc2)C1 (configuration not stated)
inhibition [1]: 17.6%
inhibition [2]: Dose-dependent effect
inhibition [3]: 36.5%
inhibition [4]: 27.1%
inhibition [5]: 51.2%
inhibition [6]: 61.7%
inhibition [7]: 23.6%
inhibition [8]: 25.3%
inhibition [9]: 15.2%
IC50 (HepG2 [11]): 18 nM
inhibition [10]: 18.2%

COc1ccc2ccc(=O)oc2c1C1=NN(c2ccccc2)C(c2ccc(SC)cc2)C1 (configuration not stated)
IC50 (HepG2 [11]): 78 nM

COc1ccc2ccc(=O)oc2c1C(/C=C/c1ccc(SC)cc1)=N/NC(N)=O
IC50 (HepG2 [11]): 99 nM

COc1ccc2ccc(=O)oc2c1C1=NNC(c2ccc(C)cc2)C1 (configuration not stated)
IC50 (HepG2 [11]): 43 nM

COc1ccc2ccc(=O)oc2c1C1=NN(c2ccccc2)C(c2ccccc2)C1 (configuration not stated)
IC50 (HepG2 [11]): 73 nM

COc1ccc2ccc(=O)oc2c1C1=NN(C(C)=O)C(c2ccc(C)cc2)C1 (configuration not stated)
IC50 (HepG2 [11]): 50 nM

COc1ccc2ccc(=O)oc2c1C1=NN(C(C)=O)C(c2ccccc2)C1 (configuration not stated)
IC50 (HepG2 [11]): 52 nM

COc1ccc2ccc(=O)oc2c1C1=NN(c2ccccc2)C(c2ccc(C)cc2)C1 (configuration not stated)
IC50 (HepG2 [11]): 51 nM

COc1ccc2ccc(=O)oc2c1C(/C=C/c1ccc(C(F)(F)F)cc1)=N/NC(N)=O
IC50 (HepG2 [11]): 96 nM

COc1ccc2ccc(=O)oc2c1C1=NN(C(N)=O)C(c2ccccc2)C1 (configuration not stated)
IC50 (HepG2 [11]): 90 nM

COc1cccc2c1C(=O)c1c(O)c3c(c(O)c1C2=O)C[C@@](O)(C(=O)CO)C[C@@H]3O[C@H]1C[C@H](N)[C@H](O)[C@H](C)O1 [DOXORUBICIN]
IC50 (HepG2 [11]): 630 nM

COc1ccc2ccc(=O)oc2c1C1=NN(C(N)=O)C(c2cccs2)C1 (configuration not stated)
IC50 (HepG2 [11]): 26 nM
